Patent US6548518B2, “Methods of treating gastro-esophogeal reflux disease using (-) norcisapride in combination with proton pump inhibitors or H2 receptor antagonists” (Sepracor, Inc., priority 1999, dated 2003)

How the values were obtained:
[1] = co-administration with ketoconazole; inhibition of metabolic elimination of cisapride; cited from earlier work
5-HT3 receptor = biological target: T1, 5-HT3 receptor (Mus musculus, UniProt P23979); experiment: Radioligand binding to 5-HT3 receptor subtypes derived from N1E-115 cells (Cerep); conditions: Table 3; ratio of IC50 at 5-HT3 to IC50 at 5-HT4
T1 construct: host or cells: N1E-115 cells
T1 sequence (P23979 24-489): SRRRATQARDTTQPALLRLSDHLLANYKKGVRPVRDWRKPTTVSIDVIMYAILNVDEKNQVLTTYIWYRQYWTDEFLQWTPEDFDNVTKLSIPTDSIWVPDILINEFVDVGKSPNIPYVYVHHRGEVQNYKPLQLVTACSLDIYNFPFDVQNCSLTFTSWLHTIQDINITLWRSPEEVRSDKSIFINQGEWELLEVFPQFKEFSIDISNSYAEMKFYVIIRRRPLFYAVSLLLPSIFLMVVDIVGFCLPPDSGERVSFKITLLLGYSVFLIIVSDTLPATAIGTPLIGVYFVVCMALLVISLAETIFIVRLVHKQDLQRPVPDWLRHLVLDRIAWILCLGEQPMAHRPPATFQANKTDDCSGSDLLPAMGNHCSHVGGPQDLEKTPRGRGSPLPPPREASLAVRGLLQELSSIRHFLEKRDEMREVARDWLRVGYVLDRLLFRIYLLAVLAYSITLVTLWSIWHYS
Procedure: Following incubation with the appropriate ligands, the preparations were rapidly filtered under vacuum through GF/B glass fiber filters and washed with ice-cold buffer using a Brandel or Packard cell harvester.
Specific radioligand binding to the receptor was defined as the difference between total binding and nonspecific binding determined in the presence of an excess of unlabeled ligand. Results were expressed as a percent inhibition of specific binding obtained in the presence of the compounds.

## COc1cc(N)c(Cl)cc1C(=O)N[C@H]1CCN(CCCOc2ccc(F)cc2)C[C@H]1OC (racemic) [(±) Cisapride, cis-4-amino-5-chloro-N-[1-[3-(4-fluorophenoxy)propyl]-3-methoxy-4-piperidinyl]-2-methoxybenzamide]
[1]
  increase of the steady-state plasma levels: 8 fold

## COc1cc(N)c(Cl)cc1C(=O)NC1CCNCC1OC (racemic) [(±) Norcisapride, 4-amino-5-chloro-N-(3-methoxy-4-piperidinyl)-2-methoxybenzamide]
5-HT3 receptor
  5-HT3/5-HT4 Ratio: 0.012

## COc1cc(N)c(Cl)cc1C(=O)NC1CCNCC1OC (single isomer, unassigned; (+)) [(+) Norcisapride]
5-HT3 receptor
  5-HT3/5-HT4 Ratio: 0.014

## COc1cc(N)c(Cl)cc1C(=O)NC1CCNCC1OC (single isomer, unassigned; (-)) [(−) Norcisapride]
5-HT3 receptor
  5-HT3/5-HT4 Ratio: 0.023
